Results as given in US20260159546A1, “PHARMACEUTICAL COMPOSITION FOR TREATING SEPSIS INCLUDING DUAL ALARMIN-RECEPTOR-SPECIFIC TARGETING PEPTIDE” (Industry-University Cooperation Foundation Hanyang …, priority 2024, published 2026).
Where two headings read alike, the source gives them in different places. Ends that are not written are not given here.

How the values were obtained:
Format in all cases: cell-based, mouse
BMDMs [1] = assay: In vitro cell viability study (Quanti-Max) on BMDMs
Procedure: Primary bone marrow-derived macrophages (BMDMs) were isolated from female C57BL/6 mice and cultured for five to seven days in a medium supplemented with macrophage-colony stimulating factor (M-CSF) for differentiation. HEK293T cells were acquired from the American Type Culture Collection (ATCC). Both BMDMs and HEK293T cells were cultured in Dulbecco's modified Eagle's medium (DMEM, GenDEPOT Inc., USA) supplemented with 10% fetal bovine serum (FBS), penicillin (100 U/mL), and streptomycin (100 μg/mL).
BMDMs were plated on 96-well plates (SPL Life Science Co. Ltd., Republic of Korea) at a density of 2×10^4 cells/well and incubated in complete DMEM for 18 h. Thereafter, the cells were treated with various concentrations of H-T, H-R, P-T, P-M peptides, control, TMR, or TMR using Abs Lipo. After 48 h of incubation, the medium was replaced with 100 μl of DMEM and the Quanti-Max solution (10% of each media volume). After two hours of incubation at 37° C. and 5% CO2, the absorbance of the plates including the Quanti-Max solution was measured at 450 nm using the MMR SPARK® microplate reader (TECAN Group Ltd., Switzerland).

[2] = system: LPS-induced cytokine production in BMDMs; assay: Cytokine ELISA in supernatant of LPS-treated BMDMs; details: LPS 100 ng/mL, 18 h
Description: FIG. 2. Preparation of TLR4/MD2/RAGE-interacting motifs of HMGB1 or PTX3; • (A and B) Schematic diagram of HMGB1 (A) and PTX3 (B) domains. Glutathione s-transferase (GST)-tagged truncates including the TLR4-, RAGE-, or MD2-binding domains of HMGB1 or PTX3 were constructed. […] HEK293T cells transfected with the GST-tagged constructs in combination with HA-TLR4, Myc-RAGE or His-MD2 were confirmed by GST-pulldown. Western blots of WCLs and eluates after GST-pulldown are shown, using glyceraldehyde 3-phosphate dehydrogenase (GAPDH) as a loading control in WCLs. Based on the pulldown binding results, TLR4-, MD2-, and RAGE-targeted peptides were constructed and prepared as an H-T, H-R, P-T, or P-M peptide (indicated in panels A and B); • (C) BMDMs were incubated with the H-T, H-R, P-T, or P-M peptide at the indicated concentrations for 48 h, and then cell viability was measured by a cell viability assay. […] They were immunoprecipitated with αFlag for two hours, separated by sodium dodecyl sulfate-polyacrylamide gel electrophoresis (SDS-PAGE), and evaluated by immunoblotting; • (E) Competition between rHMGB1 (top) or PTX3 (bottom) and the constructed peptides for their respective receptors. […] TNF-α, IL-6, IL-12p40, and IL-10 levels in the supernatant of the indicated peptide-treated BMDMs, along with LPS (100 ng/mL, 18 h), were determined by ELISA. […]

BMDMs [3] = assay: Cytokine ELISA in BMDMs stimulated with recombinant alarmins; details: BMDMs treated with recombinant alarmin 2, 5 μg/mL
Description: FIG. 1. Interaction of extracellular high-mobility group protein B1 (HMGB1) and (pentraxin 3) PTX3 with toll-like receptor 4 (TLR4) or receptor for advanced glycation end products (RAGE) in murine macrophages; • (A and B) Release of HMGB1 (A) or PTX3 (B) from murine macrophages after stimulation with lipopolysaccharide (LPS). LPS-induced HMGB1 (A) or PTX3 (B) release from murine macrophages. Immunoblots (IB) for HMGB1 and PTX3 in the cell lysates in LPS-treated bone marrow-derived macrophages (BMDMs) and the supernatant at indicated time points after LPS (100 ng/ml); • (C and D) Interaction between HMGB1 (C) or PTX3 (D) with receptors thereof. HEK293T cells were transfected with constructs, and cell lysates were immunoprecipitated with a Flag-tag-specific antibody and analyzed by immunoblotting (IB) with the indicated antibodies. […] Immunoprecipitants and whole cel lysates (WCL) were analyzed by immunoblotting with the indicated antibodies; • (E) TNF-α, IL-6, IL-12p40, and IL-10 levels in the supernatant of LPS (100 ng/ml, 18 h) or recombinant alarmins (rHMGB1 or rPTX3, each (2, 5 μg/mL))-treated BMDMs determined by enzyme-linked immunosorbent assay (ELISA). The data shown represents at least three independent experiments (n≥3), and bars denote mean±SEM (****p<0.001), and significance was measured by two-way analysis of variance (ANOVA); […]

[4] = BMDMs, 48 h incubation, various concentrations

AAYRAKGKPD [H-R]
viability of BMDMs (BMDMs [1]; [4]): almost no impact

ALAAVLEELR [P-M]
viability of BMDMs (BMDMs [1]; [4]): almost no impact

FKDPNAPKRP [H-T]
viability of BMDMs (BMDMs [1]): almost no impact

PAEARLTSAL [P-T]
viability of BMDMs (BMDMs [1]; [4]): almost no impact

TMR peptide: fusion peptide of SEQ ID NO: 2 to 5 joined by GG linkers, FKDPNAPKRPGGAAYRAKGKPDGGPAEARLTSALGGALAAVLEELR
production of inflammatory cytokines (TNF-α, IL-6, IL-12p40) [2]: significantly reduced

rPTX3: recombinant alarmin protein pentraxin 3 [reference compound]
levels of TNF-α, IL-6, IL-12p40 and IL-10 (BMDMs [3]): elevated levels

B1: rHMGB1: recombinant alarmin protein high-mobility group protein B1 (protein, UniProt P09429 1-215, looked up)
High mobility group protein B1: MGKGDPKKPRGKMSSYAFFVQTCREEHKKKHPDASVNFSEFSKKCSERWKTMSAKEKGKFEDMAKADKARYEREMKTYIPPKGETKKKFKDPNAPKRPPSAFFLFCSEYRPKIKGEHPGLSIGDVAKKLGEMWNNTAADDKQPYEKKAAKLKEKYEKDIAAYRAKGKPDAAKKGVVKAEKSKKKKEEEEDEEDEEDEEEEEDEEDEDEEEDDDDE
modifications: Flag tag
levels of TNF-α, IL-6, IL-12p40 and IL-10 (BMDMs [3]): elevated levels
